From patent EP3263567A1, “CARBOXAMIDE-SUBSTITUTED PYRAZOLES AND TRI(HETERO)ARYL-PYRAZOLES FOR USE IN METHODS OF TREATING AND / OR PREVENTING CARDIOVASCULAR DISEASES AND / OR COMORBIDITIES THEREOF” (AiCuris Anti-infective Cures GmbH, priority 2016, dated 2018) come the findings set out here.

One series in a line: pKa of compound A. In kind it is physicochemical.
For another series, the system named is Beagle dogs. Briefly: 4-week beagle dog experiment, toxicity observations. In kind it is in vivo. Here is the method: [drawing 93] i.e. 4-[5-[3-Chloro-5-(trifluoromethoxy)phenyl]-1-(pyridin-3-yl)-1H-pyrazol-3-yl]-5,6-dihydro-7H-pyrrolo[3,4-d]pyrimidin-7-one, was administered in a 4-week beagle dog experiment with integrated non-invasive telemetric electrocardiography (ECG) measurements for determining its cardiovascular effects; specifically its effects on the heart rate.
32 Beagle dogs (16 males and 16 females) with parameters in the normal range were tested for cardiovascular effects of Compound A administration and divided into the study groups indicated below.
Duration of study: • 4 acclimatization weeks • 4 test weeks • 4 additional test weeks for the animals scheduled for the recovery period.
The test compound A-formulation of the appropriate concentration was administered by oral administration at a constant administration volume/kg b.w.
• Groups 1 and 4: Twice daily at an 8-hour interval for 28 consecutive days. • Groups 2 to 3: Once daily for 28 consecutive days.
The animals were observed individually before and after dosing at each time of dosing for any signs of behavioural changes, reaction to treatment or illness.
Kennel side observations included skin/fur, eyes, mucous membranes, respiratory and circulatory systems, somatomotor activity and behaviour patterns. The onset, intensity, and duration of any signs observed were recorded.

Take `O=C1NCc2c1ncnc2-c1cc(-c2cc(Cl)cc(OC(F)(F)F)c2)n(-c2cccnc2)n1` [Compound A, 4-[5-[3-Chloro-5-(trifluoromethoxy)phenyl]-1-(pyridin-3-yl)-1H-pyrazol-3-yl]-5,6-dihydro-7H-pyrrolo[3,4-d]pyrimidin-7-one]: the pKa (commonly the pH at which an ionisable group is half protonated) in “pKa of compound A” is 2.3. Also, the mortality result in the series on Beagle dogs (3, 10 or 2 x 50 mg/kg b.w./day for 4 weeks, treatment and recovery period) is “None”. In addition, in the series with Beagle dogs (3, 10 or 2 x 50 mg/kg b.w./day oral for 4 weeks and 4-week recovery), the “signs of systemic intolerance (behaviour, external appearance, faeces)” value is recorded as “No compound A-related signs of systemic intolerance”. Also, in the series with Beagle dogs (4 weeks), the “eyes and auditory acuity” value was “No changes or adverse effects”; the “haematology, clinical biochemistry, urinalysis, ophthamological and auditory examination, organ weights, bone marrow, histopathology” value is “No compound A-related influences”; the “macroscopic inspection at necropsy” value is given as “did not reveal any morphological changes”. In addition, in the series on Beagle dogs (end of main study and of 4-week recovery period), the histopathological examination entry is “did not reveal any Compound A-related morphological changes”. Further, the “body weight and body weight gain; food and drinking water consumption” value in the series with Beagle dogs (treatment period) was “No compound A-related influence”.
